From US20260215427A1, “NON-BIPYRIDYL SALT HERBICIDE, PREPARATION METHOD THEREFOR, AND USE THEREOF” (priority 2022, published 2026)

How the values were obtained:
Bermuda grass [1] = assay: Herbicidal performance of the compound of formula 3, leaf spray, diquat as positive control; assay type: in vivo; conditions: air and sunlight
From the text: Under air and sunlight, the compound of formula 3 of the present invention was sprayed on the surface of leaves, with herbicide diquat as a positive control. The diameter of the observation range was 10 cm.

[2] = Conversion of the compound of formula 2 to PQ under lighting and air conditions in physiological saline; assay type: physicochemical; conditions: air; for Yield (conversion to PQ): darkness, 72 h; for Yield (conversion rate to PQ): natural light, 24 h
Acorus calamus = assay: Herbicidal performance, leaf spray under air and sunlight; assay type: in vivo
From the text: (§1) As is well-known, Bermuda grass, Arabidopsis thaliana, and Acorus calamus are naturalized green weeds in most parts of the world and are also invasive grasses. Photosynthesis occurs throughout their entire leaves and bundles. […] Therefore, Bermuda grass, Acorus calamus, and Arabidopsis thaliana were selected as plant models to evaluate the herbicidal performance of the compounds in the present invention.
(§2) Under air and sunlight, the compound of formula 2 of the present invention was sprayed on the leaf surface at concentrations of 1, 2, 4, and 8 times the PQ equivalent, respectively. Paraquat herbicide was used as the positive control, and physiological saline was used as the blank control group. The diameter of the observation range was 8 cm.

Arabidopsis thaliana [3] = assay: as above; assay type: in vivo
From the text: as §1, §2

Bermuda grass [4] = assay: as above; assay type: in vivo
From the text: as §1, §2

[5] = Acute toxicity test and LD50 determination in mice, intraperitoneal injection; assay type: in vivo; conditions: mouse, in vivo, ip; mice, intraperitoneal injection, seventh day
Procedure: (§3) In order to evaluate the safety of compound 2 of the present invention in vivo, acute toxicity tests were conducted on mice. Firstly, the LD50 of diene diamine in mice was measured. […] The toxicity of diene diamine in mice is low and the safety is high.

mice [6] = assay: as above; assay type: in vivo
Procedure: as §3

mice [7] = assay: Survival rate and body weight of mice after intraperitoneal injection; assay type: in vivo; conditions: 0.19 mmol/kg intraperitoneal
mice [8] = assay: Organ indices and biochemical indicators 48 hours after intraperitoneal injection in mice; assay type: in vivo
From the text: P<0.05 is considered statistically significant, with 10 mice per group (n=10).
However, no significant differences in these biochemical indicators were detected after intraperitoneal injection of the compound of formula 2 diene diamine at the same molar concentration.

mice [9] = assay: Damage of major organs (histopathology) 48 hours after intraperitoneal injection in mice; assay type: in vivo; conditions: 48 hours after intraperitoneal administration
From the text: The data is expressed as mean±standard error, with 6 mice per group (n=6), and P<0.05 indicates statistically significant differences. Scale bar: 50 μm.

mice [10] = assay: Transmission electron microscopy of main organs 48 hours after intraperitoneal injection in mice; assay type: in vivo; conditions: 0.19 mmol/kg intraperitoneal
Procedure: 48 hours after intraperitoneal injection of 0.19 mmol/kg of paraquat or the compound of formula 2, transmission electron microscopy samples of the lung, liver, kidney, and heart were collected. The black arrow indicated mitochondrial damage, and the electron microscopy scale of the heart group was 200 nm, and the electron microscope scale of other groups was 100 nm.

[11] = Direct cytotoxicity, cell viability and IC50; assay type: cell-based; conditions: 24 hours
From the text: (§4) PQ is rapidly absorbed and distributed to the lungs, kidneys, liver, and muscles after entering the human body. Death caused by ingestion of PQ is usually due to multiple organ failure, such as pulmonary edema, kidney and liver failure. Therefore, lung cells (A549 cells), kidney cells (COS-7), and liver cells (Hep G2) were selected to evaluate the direct cytotoxicity of diene diamine.

A549 cells [12] = assay: Direct cytotoxicity, cell viability and IC50; assay type: cell-based
From the text: as §4

COS-7 cells [13] = assay: Direct cytotoxicity, cell viability and IC50; assay type: cell-based
From the text: as §4

Hep G2 cells [14] = assay: Direct cytotoxicity, cell viability and IC50; assay type: cell-based
From the text: as §4

A549 cells [15] = assay: Intracellular ROS levels, DCF fluorescence, flow cytometry; assay type: cell-based; conditions: 100 μM, 18 hours
Procedure: (§5) The above three types of cells were exposed to 100 μM PQ (100) and 100 μM of the compound of formula 2 and incubated for 18 hours, and the intracellular reactive oxygen species (ROS) levels were quantified using flow cytometry. Intracellular ROS levels were measured using DCF fluorescence (n=6).

COS-7 cells [16] = assay: as above; assay type: cell-based; conditions: 100 μM, 18 hours
Procedure: as §5

Hep G2 cells [17] = assay: as above; assay type: cell-based; conditions: 100 μM, 18 hours
Procedure: as §5

A549 cells [18] = assay: Apoptosis, Annexin V-FITC and propidium iodide staining; assay type: cell-based; conditions: 24 hours of incubation
From the text: (§6) The data was expressed as + SEM. *p<0.05, p<0.05, **p<0.01, ***p<0.001, ****p<0.0001.

COS-7 cells [19] = assay: as above; assay type: cell-based; conditions: 24 hours of incubation
From the text: as §6

Hep G2 cells [20] = assay: as above; assay type: cell-based; conditions: 24 hours of incubation
From the text: as §6

Arabidopsis thaliana [21] = assay: Herbicidal mechanism: LC-MS, chlorophyll and photosystem parameters, electron microscopy after spraying; assay type: in vivo
[22] = 25 °C, listed as diene diamine compound
[23] = various concentrations (1, 2, 4, 8 times PQ equivalent), air and sunlight
[24] = 50 mg/kg paraquat or same dose, 48 hour

## C1=CCN2CCN3CC=CCC3C2C1 (stereo not drawn) [compound of formula 3, 1,4,6,7,9,12,12a, 12b octahydrodipyridin [1,2-a: 2′, 1′-c]pyrazine]
Bermuda grass [1]
  weed control effect relative to diquat: comparable to that of diquat
Bermuda grass [1]; concentration not specified
  state of leaves 3 days after spraying: began to wither
  state of leaves after 5 days: completely withered

## CN1CC=C(C2=CCN(C)CC2)CC1 [compound of formula 2, 1,1′-dimethyl-1,1′, 2,2′, 3,3′, 6,6′-octahydro-4,4′-bipyridine]
[2]; 25 °C
  Yield (conversion to PQ): 0%
  Yield (conversion rate to PQ): 30%
[2]; [22]
  Yield (conversion to PQ): hardly converted to PQ
  Yield (conversion rate to PQ): about 30%
[2]; 40 °C
  Yield (conversion rate to PQ): 63%
[2]; 40 °C, listed as diene diamine compound
  Yield (conversion rate to PQ): about 63%
Acorus calamus; same or twice the dose of PQ
  weed control effect compared with PQ: slightly delayed weed control effect
Acorus calamus; [23]
  state of leaves 24 hours after spraying: began to wither
Arabidopsis thaliana [3]; same or twice the dose of PQ
  weed control effect compared with PQ: slightly delayed weed control effect
Arabidopsis thaliana [3]; [23]
  state of leaves 24 hours after spraying: began to wither
Bermuda grass [4]; same or twice the dose of PQ
  weed control effect compared with PQ: slightly delayed weed control effect
Bermuda grass [4]; [23]
  state of leaves 24 hours after spraying: began to wither
[5]
  LD50 at 7 day: 1000 mg/kg
Mice [6]; 1200 mg/kg intraperitoneal, 8 mice
  deaths: Eight mice died
Mice [6]; 300 and 600 mg/kg intraperitoneal, third day after administration
  survival: all mice survived
Mice [6]; 900 and 1050 mg/kg intraperitoneal, respectively, 8 mice per dose
  deaths: Three mice died
Mice [7]
  weight of the mice: continued to steadily increase
Mice [7]; after 168 hours
  survival: all mice in the group of the compound of formula 2 survived
Mice [8]; [24]
  levels of SOD and CAT in lung tissue: no significant changes
  serum levels of TNF-α, IL-B, IL-6, AST, ALT, SCr, BUN, and uric acid: no significant changes
Mice [8]; 50 mg/kg paraquat or same molar dose, 48 hours
  lung, liver, and kidney indices compared with the control group: no statistical difference
Mice [8]; 50 mg/kg paraquat or same molar dose, 48 hours, among the three groups
  cardiac index: no statistical difference
Mice [9]
  pathological damage of major tissues (lung, liver, kidney, heart): no significant pathological damage
Mice [10]
  mitochondrial structure in lung, liver, kidney, and heart tissues (transmission electron microscopy): No significant mitochondrial structural damage
[11]; African green monkey, Cos-7 cells
  IC50: 1570 µM
[11]; human, A549 cells
  IC50: 5770 µM
[11]; human, hep G2 cells
  IC50: 1360 µM
A549 cells [12]; A549, co-culture 24 hours, concentration gradient
  cell viability: no significant changes in cell viability
A549 cells [12]; A549 cells
  IC50 value relative to the PQ treatment group: increased by dozens of times
COS-7 cells [13]; COS-7, co-culture 24 hours, concentration gradient
  cell viability: no significant changes in cell viability
COS-7 cells [13]; COS-7 cells
  IC50 value relative to the PQ treatment group: increased by dozens of times
Hep G2 cells [14]; Hep G2, co-culture 24 hours, concentration gradient
  cell viability: no significant changes in cell viability
Hep G2 cells [14]; Hep G2 cells
  IC50 value relative to the PQ treatment group: increased by dozens of times
A549 cells [15]
  intracellular ROS production: no significant changes
COS-7 cells [16]
  intracellular ROS production: no significant changes
Hep G2 cells [17]
  intracellular ROS production: no significant changes
A549 cells [18]
  apoptosis rate compared to the PQ group: significantly reduced
COS-7 cells [19]
  apoptosis rate compared to the PQ group: significantly reduced
Hep G2 cells [20]
  apoptosis rate compared to the PQ group: significantly reduced
Arabidopsis thaliana [21]
  electron microscopy findings after 8 hours: chloroplast stroma lysis, swelling of thylakoids and mitochondrial cristae
  electron microscopy findings after 24 hours: rupture of mesophyll cell nuclei, mitochondria, and chloroplast envelopes
Arabidopsis thaliana [21]; natural sunlight and air
  chlorophyll content, maximum fluorescence quantum yield of PSII, Fv/Fm value, and SPAD: significant decreases
